Measured values taken from patent US20020098469A1, “EXTRACORPOREAL METHODS FOR ENHANCING ANTIGEN PRESENTATION AND IMMUNE RESPONSIVENESS” (morgan ,lewis, bockius llp, priority 1996, published 2002).

Tests used:
[1] = system: C1R B lymphoblastoid line transduced with the Class I B27 allele; assay: Class I expression on B27-transduced C1R B lymphoblastoid line, labeled W6/32 monoclonal antibody (FIG. 3); type: cell-based, human; settings: for impact on Class I expression: other pharmacologic agents compared with 8-MOP
Method: In order to evaluate the enhanced immunogenicity of 8-MOP treated CTCL cells, a series of human lymphoblast lines was derived. The C1R B lymphoblastoid line, which in its native state expresses no HLA-A or HLA-B surface Class I and only a minute amount of HLA-C molecules was transduced with the Class I B27 allele. This modified cell population, with nearly all of its surface Class I molecules being B27, was exposed to 8MOP and incubated overnight.

[2] = system: Class I protein on the cell surface; assay: Class I expression after 8-MOP/UVA, fluorescent antibody, mean fluorescence channel (FIG. 2); type: cell-based
Source text: Mean fluorescence channel measurements permit the quantification of the amount of Class I protein on the cell surface, as identified with a fluorescent antibody against the Class I protein.

[3] = system: Class I molecules on transduced C1R B cells; assay: Binding of iodinated B27 allele-specific peptide, immunoprecipitation with antibody 4E; type: cell-based, human; settings: transduced C1R B cells exposed to 8-MOP
Method: To determine if the Class I MHC molecules induced in Example 5 remained functional, i.e., could be loaded with a known B27 allele-specific peptide, iodinated peptide was added under varied conditions.

[4] = system: C1R human B lymphoblasts displaying B27 Class I complex; assay: Class I MHC level of C1R cells incubated in various containers, cytofluorimeter (FIG. 5); type: cell-based; settings: photoactivated 8-MOP in the 2410 bag (no leachable plasticizers), about 24 hours at 37° C.
Method: In the foregoing experiment, C1R human B lymphoblasts, cells molecularly engineered so that they display a readily studied B27 Class I protein complex, were exposed to photoactivated 8-MOP in the presence of various plastic containers. The mean fluorescence intensity was measured in a cytofluorimeter, using monoclonal antibodies specific for the B27 Class I complex.

[5] = system: human B lymphoblasts lacking the TAP genes or with TAP blocked by transduced ICP47; assay: TAP dependence of the 8-MOP-induced Class I increase (FIG. 4); type: cell-based; settings: B lymphoblasts that lacked the TAP genes or had them blocked by transduced ICP47 (both conditions)
Method: Next, it was determined that the 8-MOP-induced increase in surface Class I molecules is dependent on peptide transport across the endoplasmic reticulum through the transporter associated with […] (TAP) pores. […] The increased immunogenicity of 8MOP treated disease-effector cells was thus shown to involve the augmented catabolism of proteins, leading to the generation of small peptides that are then transported to Class I molecules in the endoplasmic reticulum and then on to the cell surface where they associate with the Class I molecules.

In the case of “γ-interferon: other pharmacologic agent compared with 8-MOP”, the “impact on Class I expression” value [1] is reported as “either no or a more limited impact”.

`CO[C@@]12[C@H](COC(N)=O)C3=C(C(=O)C(C)=C(N)C3=O)N1C[C@@H]1N[C@@H]12` [mytomycin C] was tested, and the “impact on Class I expression” value [1] was “either no or a more limited impact”.

TNF-α was tested, and the “impact on Class I expression” value [1] was “either no or a more limited impact”.

For `COc1c2occc2cc2ccc(=O)oc12` [8-MOP, 8-methoxypsoralen], the “Class I molecule expression” value ([2]; 1 joule per cm^2 of UVA and 200 ng/ml of 8-MOP, incubation about 18 hours, versus control cells) was “about doubles”, the “allele-specific peptide bound versus untreated cell line control” value [3] was “approximately 3 fold” and the “increase in functional Class I molecules per cell” value [3] was > 10,000 functional Class I molecules per cell. The “Class I MHC level versus untreated controls” value [4] was “more than doubled”, the “Class I expression” value ([1]; UVA administered before the addition of 8-MOP, drug not photoactivated) was “only a minor increase” and the “time to peak levels of Class I expression after exposure” value ([1]; optimal levels of 8-MOP) was 20 h. The “increase of Class I expression over background” value ([1]; photoactivated 8-MOP, optimal levels, overnight incubation) was “approximately 3 fold” and the “8-MOP induced increase in Class I molecules” value [5] was “prevented”.

For `CC[C@H]1CN2CCc3cc(OC)c(OC)cc3[C@@H]2C[C@@H]1C[C@H]1NCCc2cc(OC)c(OC)cc21` [emetine], the “effect on the 8-MOP/UVA-induced increase in Class I expression” value ([2]; emetine added to 8-MOP/UVA treated cells) was “prevented”.
